Reference: the CATMoS acute toxicity set (Mansouri et al. 2021)

Test: GHS categories as the set defines them, by LD50: 1 up to 5, 2 up to 50, 3 up to 300, 4 up to 2000, 5 above 2000 mg/kg
Conditions: rat; in vivo; po

Structure (SMILES)	GHS category
CN[C@@H]1[C@H](O[C@H]2[C@H](O[C@@H]3[C@H](O)[C@@H](O)[C@@H](OC(N)=O)[C@@H](O)[C@@H]3NC(=N)N)O[C@@H](C)[C@]2(O)CO)O[C@@H](CO)[C@H](O)[C@H]1O	5
N[C@@H](CC(=O)O)C(=O)O	5
CCCCCNC(=O)c1cnc2cccc(C)n2c1=O	3
CCCCCCCCCCCCCCCCCCOP(=O)(O)O	5
CC(C)(C)c1ccc(O)c(C(C)(C)C)c1	5
COc1ccccc1C(=O)NS(=O)(=O)c1ccc(C(=O)NC2CC2)cc1	5
CCCCC(CC)COC(=O)OCC(CC)CCCC (stereo not given)	5
O=[N+]([O-])c1ccc(OCC2CO2)cc1 (stereo not given)	5
CC(c1ccccc1)c1ccc(Nc2ccc(C(C)c3ccccc3)cc2)cc1 (stereo not given)	5
CNC(=C[N+](=O)[O-])NCCSCc1ccc(CN(C)C)o1	5
Cn1nnnc1SCCCC(=O)c1cccs1	4
C=C[Si](C)(C)O[Si](C)(C)C=C	5
COc1ccc(C[C@](C)(NC(N)=O)C(=O)O)cc1OC	5
Nc1ccc(S(=O)(=O)Nc2ncccn2)cc1	5
O=C(O)Cc1ccc(OCC(O)CO)c(Cl)c1 (stereo not given)	5
CC(SC(=O)c1cccs1)C(=O)NCC(=O)O (stereo not given)	5
CO[C@@H](c1cc(C)c(O)c(C)c1)[C@@H](C)CO	5
CCOC(=O)[C@H](CCc1ccccc1)N[C@H]1CCc2ccccc2N(CC(=O)O)C1=O	5
C[Si](C)(C)O[Si](C)(C)C	5
CCCCC(CC)COC(=O)c1ccccc1O (stereo not given)	5
O=S(=O)(O)c1ccc(/N=N/c2c(O)ccc3cc(S(=O)(=O)O)ccc23)cc1	5
CCCCCCNC(=O)c1cnc2cccc(C)n2c1=O	3

Structure (SMILES)	GHS category
CC[N+](CC)(CC)CCOc1cccc(OCC[N+](CC)(CC)CC)c1OCC[N+](CC)(CC)CC	4
C=CC(C)(CCC=C(C)C)OC(C)OCC (stereo not given)	5
N#Cc1ccccc1-c1ccc(CBr)cc1	5
CC(C)C1C(=O)N(c2ccccc2)N(c2ccc(O)cc2)C1=O (stereo not given)	4
CC(C)OP(=O)(O)Oc1ccccc1	5
Cc1cccc2ncc(C(=O)NC3CCCCCC3)c(=O)n12	3
CCCNC(=O)C(Cc1ccc(OCCN(CC)CC)cc1)NC(=O)c1ccccc1 (stereo not given)	4
COCC1COC(Cn2cncn2)(c2cc3ccccc3o2)O1 (stereo not given)	4
CCCCCCCCC=COCC	5
CCCCOC(=O)C1(O)c2ccccc2-c2ccccc21	5
CCOC(=O)C(=O)Nc1cc(OCCOCc2ccccc2)nc(C)n1	4
CC(=O)O[C@@H]1C[C@H](C)CC[C@H]1C(C)C	5
CC(C)CCCCCCCCCCCCCCC(=O)OC(C)C	5
Cc1cccc2ncc(C(=O)NC(C)(C)C)c(=O)n12	3
CC(=O)S[C@@H]1CC2=CC(=O)CC[C@]2(C)[C@H]2CC[C@@]3(C)[C@@H](CC[C@@]34CCC(=O)O4)[C@H]12	4
CCOC(=O)CCCCC(=O)OCC	4
COc1ccccc1C=NNC(N)=S	5
CCCC/C=C/CC/C=C\CCCCCCOC(C)=O	5
CCN(CC)CCOC(=O)c1ccc(-n2c(C)nc3ccccc3c2=O)cc1	5
COC1=C(OC)C(=O)C(CC=C(C)CCC=C(C)CCC=C(C)CCC=C(C)CCC=C(C)CCC=C(C)CCC=C(C)CCC=C(C)CCC=C(C)C)=C(C)C1=O	5
CC/C(=C(/c1ccc(OCCN(C)C)cc1)c1cccc(O)c1)c1ccccc1	5
Nc1c[n+](N2CCOCC2)no1	4

Structure (SMILES)	GHS category
CCCCCCC(C)O (stereo not given)	5
OCCOc1nn(-c2cccc(C(F)(F)F)c2)c2ncccc12	4
Cc1ccc(O)c(/N=N/c2ccccc2[N+](=O)[O-])c1	5
CC(c1ccc(O)cc1)(c1ccc(O)cc1)c1ccc(O)cc1	5
CCCc1c(Cc2ccc(-c3ccccc3-c3nn[nH]n3)cc2)c(=O)nc2nc(N)[nH]n12	4
CN1C(CCl)Nc2cc(Cl)c(S(N)(=O)=O)cc2S1(=O)=O (stereo not given)	5
O=C(O)CC[C@@H](C(=O)O)N(CC(=O)O)CC(=O)O	5
CCOC(=O)CCSc1cc(NC(=O)C(=O)OCC)ncn1	4
CCC=CCC(C)OC(=O)c1ccccc1O (stereo not given)	5
C=C(C)CCCC(C)CCOC(=O)CC (stereo not given)	5
C=C(C)C(=O)OCCOC(=O)NCCC(C)CC(C)(C)CNC(=O)OCCOC(=O)C(=C)C (stereo not given)	5
OC1CCC(CN2CCC(=C3c4ccc(F)cc4Sc4ccc(C(F)(F)F)cc43)CC2)CC1 (stereo not given)	3
COc1cc(NC(=O)C(/N=N/c2cc(OC)c(S(=O)(=O)Nc3ccccc3)cc2OC)C(C)=O)c(OC)cc1Cl (stereo not given)	5
CCCCCCCCCCCC(=O)OC1CC(C)(C)NC(C)(C)C1	5
COC(=O)c1ccc(C(=O)OC)c([N+](=O)[O-])c1	5
CC(=O)Nc1ccc(C(C[N+](=O)[O-])Sc2ccc(C)cc2)cc1 (stereo not given)	5
CCC(C)CCCC(C)CCCC(C)C (stereo not given)	5
C=C(C)CCCC(C)CCOC(C)=O (stereo not given)	5
Nc1nnc(-c2cc(Cl)ccc2Cl)c(N)n1	4
CSc1nnc(C(C)(C)C)c(=O)n1/N=C/C(C)C	5
C#CCN1C(=O)COc2cc(F)c(N3C(=O)C4=C(CCCC4)C3=O)cc21	5
CCOc1ccc(OC(=O)c2ccccc2OC(N)=O)cc1	5

Structure (SMILES)	GHS category
COC(=O)c1sc(N)c(C#N)c1C	5
CC1CN(S(=O)(=O)c2cccc3cnccc23)CCN1 (stereo not given)	4
CCCc1nc(C)n2[nH]c(=O)nc2c1Cc1ccc(-c2ccccc2-c2nn[nH]n2)cc1	4
CCOC(=O)Oc1ccc(C2(c3ccc(OC(=O)OCC)cc3)C(=O)Nc3c(C)cccc32)cc1	5
CCC(=O)OCCC(C)CCC=C(C)C (stereo not given)	5
O=S(=O)(O)c1cc(-n2ncc(-c3ccccc3)n2)ccc1C=Cc1ccc(-n2ncc(-c3ccccc3)n2)cc1S(=O)(=O)O	5
CCOC(=O)Cn1c(=O)sc2cccc(Cl)c21	5
CN(C)CCOc1nn(-c2cccc(C(F)(F)F)c2)c2ncccc12	4
CCCNC(=O)c1sc(-c2ccccc2OC)nc1C	5
O=C1c2c(Cl)c(Cl)c(Cl)c(Cl)c2C2=Nc3cccc4cccc(c34)N12	5
COc1ccc(OC)c(C(O)CNC(=O)CN)c1 (stereo not given)	2
CCC[Si](OCC)(OCC)OCC	5
COP(=O)(NC(=O)C(Cl)Cl)SC (stereo not given)	4
C=CCOc1cc(Cl)ccc1C(=O)NCCN(CC)CC	5
Cc1ccc(C(=O)c2ccc(CC(=O)NCC(=O)Nc3cccc(Cl)c3)n2C)cc1	4
CCCCCCCCCCCC1CC(O)=C(CCCCCC)C(=O)O1 (stereo not given)	5
CCCNC(=O)c1cnc2cc(C)ccn2c1=O	3
Cc1cc(C2CC2)nc(Nc2ccccc2)n1	5
O=C(CCCCC(=O)N(CCO)CCO)N(CCO)CCO	5
